In patent US5707966A, “Antithrombotic agents” (Eli Lilly and Company, priority 1995, dated 1998):
Counter-ions that a name gives are not always drawn. Like-named read-outs stand apart in the source and are kept apart here.

Columns and labels:
Assay type in all cases: biochemical
[1] = test system: Human plasma; assay: Human plasma anticoagulation, prothrombin time (PT); conditions: concentration required to double the PT, linear extrapolation
In short: (§1)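 In plasma from human donors, spiked with a range of compound levels, an automated coagulometer recorded clot formation after thromboplastin (PT), Actin then calcium (APTT) or 10 NIH units/mL thrombin (TT); doubling concentrations were extrapolated linearly.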

[2] = molecular target: T1, factor Xa (Homo sapiens, UniProt P00742); assay: Kass with factor Xa, chromogenic substrate; conditions: substrate N-Benzoyl-Ile-Glu-Gly-Arg-p-nitroanilide
T1 construct: Human factors X, Xa, IXa, XIa, and XIIa are purchased; purchased Enzyme Research Laboratories, South Bend, Ind

[3] = molecular target: T2, Bovine trypsin (Bos taurus, UniProt P00760); assay: Kass with trypsin, chromogenic substrate; conditions: substrate N-Benzoyl-Phe-Val-Arg-p-nitroanilide
T2 construct: Bovine trypsin is purchased; purchased Worthington Biochemicals, Freehold, N.J
T2 sequence (P00760 24-246): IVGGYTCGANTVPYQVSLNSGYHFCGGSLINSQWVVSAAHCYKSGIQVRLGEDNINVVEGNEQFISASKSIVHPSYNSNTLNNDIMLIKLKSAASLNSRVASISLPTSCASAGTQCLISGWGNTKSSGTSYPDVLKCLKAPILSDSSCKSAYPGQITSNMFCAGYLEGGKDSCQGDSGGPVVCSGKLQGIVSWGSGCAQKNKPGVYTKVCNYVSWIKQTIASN

[4] = test system: Human plasma; assay: Human plasma anticoagulation, activated partial thromboplastin time (APTT); conditions: concentration required to double the APTT, linear extrapolation
In short: as §1

[5] = test system: Human plasma; assay: Human plasma anticoagulation, thrombin time (TT); conditions: concentration required to double the thrombin time, linear extrapolation
In short: as §1

[6] = molecular target: T3, t-PA (Homo sapiens, UniProt P00750); assay: Kass with t-PA, chromogenic substrate; conditions: substrate H-D-Ile-Pro-Arg-p-nitroanilide
T3 construct: purchased American Diagnostica, Greenwich, Conn
Description: By substantially following the procedures described above for human thrombin, and using other human blood coagulation system serine proteases and proteases of the fibrinolytic system with the appropriate chromogenic substrates, identified below, selectivity of the compounds of the present invention with respect to the coagulation factor serine proteases and with respect to the fibrinolytic system serine proteases are evaluated as well as their substantial lack of interference with serine proteases of the fibrinolytic system. Thrombin inhibitors preferably should spare fibrinolysis induced by urokinase, tissue plasminogen activator (t-PA) and streptokinase. This would be important to the therapeutic use of such agents as an adjunct to streptokinase, t-PA or urokinase thrombolytic therapy and to the use of such agents as an endogenous fibrinolysis-sparing (with respect to t-PA and urokinase) antithrombotic agent. In addition to the lack of interference with the amidase activity of the fibrinolytic proteases, such fibrinolytic system sparing can be studied by the use of human plasma clots and their lysis by the respective fibrinolytic plasminogen activators.
Human plasmin is purchased from Boehringer Mannheim, Indianapolis, Ind.; nt-PA is purchased as single chain activity reference from American Diagnostica, Greenwich, Conn. modified-t-PA6 (mt-PA6) is prepared at Eli Lilly and Company by procedure known in the art (See, Burck, et al., J. Biol. Chem., 265, […] (1990). Plasmin chromogenic substrate H-D-Val-Leu-Lys-p-nitroanilide and tissue plasminogen activator (t-PA) substrate H-D-Ile-Pro-Arg-p-nitroanilide are purchased from Kabi Vitrum, Stockholm, Sweden.

[7] = molecular target: Human Thrombin (Homo sapiens, UniProt P00734); assay: Inhibition of amidase activity of thrombin (Kass)
[8] = molecular target: T4, Human plasmin (Homo sapiens, UniProt P00747); assay: Kass with plasmin, chromogenic substrate; conditions: substrate H-D-Val-Leu-Lys-p-nitroanilide
T4 construct: Human plasmin is purchased; purchased Boehringer Mannheim, Indianapolis, Ind

[9] = mean over a range of concentrations, […]

T3 sequence (P00750 36-562): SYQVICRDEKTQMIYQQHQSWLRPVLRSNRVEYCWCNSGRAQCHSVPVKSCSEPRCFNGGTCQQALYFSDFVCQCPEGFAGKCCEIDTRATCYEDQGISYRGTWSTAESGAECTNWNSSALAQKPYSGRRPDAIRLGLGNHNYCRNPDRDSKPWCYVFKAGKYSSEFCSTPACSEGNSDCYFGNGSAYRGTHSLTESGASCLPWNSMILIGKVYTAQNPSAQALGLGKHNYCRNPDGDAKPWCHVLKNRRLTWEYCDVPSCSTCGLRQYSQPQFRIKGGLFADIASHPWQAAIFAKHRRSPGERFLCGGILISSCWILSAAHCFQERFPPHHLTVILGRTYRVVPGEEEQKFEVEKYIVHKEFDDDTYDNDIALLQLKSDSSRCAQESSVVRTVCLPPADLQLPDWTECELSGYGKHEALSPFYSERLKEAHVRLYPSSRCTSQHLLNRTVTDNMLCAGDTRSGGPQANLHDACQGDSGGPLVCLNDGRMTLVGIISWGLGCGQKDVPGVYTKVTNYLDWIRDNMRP
T4 sequence (P00747 97-810): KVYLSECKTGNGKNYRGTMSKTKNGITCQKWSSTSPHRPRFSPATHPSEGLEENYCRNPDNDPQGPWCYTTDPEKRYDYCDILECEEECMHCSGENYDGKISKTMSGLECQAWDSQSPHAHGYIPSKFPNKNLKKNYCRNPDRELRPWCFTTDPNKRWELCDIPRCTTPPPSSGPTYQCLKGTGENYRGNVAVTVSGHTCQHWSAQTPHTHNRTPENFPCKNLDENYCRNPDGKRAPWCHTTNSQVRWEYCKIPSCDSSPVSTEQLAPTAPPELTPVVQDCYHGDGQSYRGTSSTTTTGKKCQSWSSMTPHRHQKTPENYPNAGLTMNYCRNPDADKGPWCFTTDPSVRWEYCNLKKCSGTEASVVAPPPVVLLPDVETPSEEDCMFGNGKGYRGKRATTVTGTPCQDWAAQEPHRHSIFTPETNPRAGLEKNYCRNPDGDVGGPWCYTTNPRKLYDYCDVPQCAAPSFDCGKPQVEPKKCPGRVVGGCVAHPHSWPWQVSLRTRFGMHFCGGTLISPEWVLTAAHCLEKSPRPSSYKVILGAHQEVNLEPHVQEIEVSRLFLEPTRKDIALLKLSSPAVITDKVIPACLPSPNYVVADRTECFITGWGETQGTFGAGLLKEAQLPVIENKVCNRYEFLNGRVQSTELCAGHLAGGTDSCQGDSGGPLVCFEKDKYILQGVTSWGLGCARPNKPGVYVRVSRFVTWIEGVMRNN
T4 sequence (P00747 97-580 partner limits assumed): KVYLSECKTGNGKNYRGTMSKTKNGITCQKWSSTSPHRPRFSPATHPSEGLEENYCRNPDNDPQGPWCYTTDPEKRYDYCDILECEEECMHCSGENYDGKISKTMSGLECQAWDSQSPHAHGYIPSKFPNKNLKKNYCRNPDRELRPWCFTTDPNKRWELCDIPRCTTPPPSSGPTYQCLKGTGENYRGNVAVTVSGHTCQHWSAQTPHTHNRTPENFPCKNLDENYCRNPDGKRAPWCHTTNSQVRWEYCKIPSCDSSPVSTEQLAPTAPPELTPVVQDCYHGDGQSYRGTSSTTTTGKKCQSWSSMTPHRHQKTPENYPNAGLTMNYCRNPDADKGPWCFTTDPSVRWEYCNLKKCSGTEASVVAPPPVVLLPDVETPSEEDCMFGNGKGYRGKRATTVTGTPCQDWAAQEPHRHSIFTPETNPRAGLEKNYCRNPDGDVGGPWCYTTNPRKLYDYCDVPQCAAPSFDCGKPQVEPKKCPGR
T1 sequence (P00742 235-488 limits assumed): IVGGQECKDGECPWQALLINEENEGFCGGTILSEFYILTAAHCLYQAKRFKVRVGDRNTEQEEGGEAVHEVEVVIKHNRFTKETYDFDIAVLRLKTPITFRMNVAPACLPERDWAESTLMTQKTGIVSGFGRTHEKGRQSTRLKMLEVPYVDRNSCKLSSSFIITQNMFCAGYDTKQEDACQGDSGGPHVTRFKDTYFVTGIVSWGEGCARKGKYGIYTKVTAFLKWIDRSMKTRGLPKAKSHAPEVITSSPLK
T1 sequence (P00742 41-179 partner limits assumed): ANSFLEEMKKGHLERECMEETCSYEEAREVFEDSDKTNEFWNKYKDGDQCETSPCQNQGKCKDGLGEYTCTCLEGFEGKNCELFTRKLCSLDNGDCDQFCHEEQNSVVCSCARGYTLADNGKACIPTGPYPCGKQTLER

Row | Compound | Human Plasma Anticoagulation 2× Clotting time PT [1] | Kass Xa [2] | Kass Trypsin [3] | Human Plasma Anticoagulation 2× Clotting time APTT [4] | Human Plasma Anticoagulation 2× Clotting time TT [5] | Kass t-PA [6] | Kass Human Thrombin [7] | Kass Plasmin [8] | Kass Human Thrombin [7, 9]
1 | CCS(=O)(=O)N[C@H](Cc1ccccc1)C(=O)N1[C@H](C(=O)NCc2ccc(C(=N)N)cc2)C[C@@H]2CCCC[C@@H]21 (relative stereo) [Example 45, EtSO2 -Phe-cis-Ohi-p-NHCH2 C6 H4 C(NH)NH2.HCl] | 330 ng/mL | 1.5 × 10^6 (L/mole) | 110 × 10^6 (L/mole) | 200 ng/mL | 8 ng/mL | 0.77 × 10^6 (L/mole) | 610 | 1.1 × 10^6 (L/mole) | 
2 | N=C(N)c1ccc(CNC(=O)[C@@H]2C[C@@H]3CCCC[C@@H]3N2C(=O)[C@@H](CC2CCCCC2)NCC(=O)O)cc1 (relative stereo) [Example 49, HOOCCH2 -D-Cha-cis-Ohi-p-NHCH2 C6 H4 C(NH)NH2.HCl] | 130 ng/mL | 3.4 × 10^6 (L/mole) | 940 × 10^6 (L/mole) | 130 ng/mL | 5 ng/mL | 0.04 × 10^6 (L/mole) | 400 | 0.84 × 10^6 (L/mole) | 
3 | CC(C)CC[C@H]1C[C@@H](C(=O)NCc2ccc(C(=N)N)cc2)N(C(=O)[C@@H](CC2CCCCC2)NCC(=O)O)C1 (relative stereo) [Example 50] | 420 ng/mL | 4.3 × 10^6 (L/mole) | 2,200 × 10^6 (L/mole) | 460 ng/mL | 35 ng/mL | 0.04 × 10^6 (L/mole) |  | 1.8 × 10^6 (L/mole) | 40 × 10^6 (L/mole)
4 | N=C(N)c1cccc(CNC(=O)[C@@H]2CCCN2C(=O)[C@H](N)Cc2ccccc2)c1 [Example 16, D-Phe-Pro-m-NHCH2 C6 H4 C(NH)NH2.0.75HCl] | 8,500 ng/mL | 0.0051 × 10^6 (L/mole) | 0.02 × 10^6 (L/mole) | 8,600 ng/mL | 650 ng/mL | 0.0012 × 10^6 (L/mole) |  | 0.0017 × 10^6 (L/mole) | 0.97 × 10^6 (L/mole)
5 | CCS(=O)(=O)N[C@H](Cc1ccccc1)C(=O)N1CCC[C@H]1C(=O)NCc1cccc(C(=N)N)c1 [Example 24, EtSO2 -D-Phe-Pro-m-NHCH2 --C6 H4 C(=NH)NH2.HCl] | 25,000 ng/mL | < 0.001 × 10^6 (L/mole) | 0.03 × 10^6 (L/mole) | 25,900 ng/mL | 1,000 ng/mL | < 0.001 × 10^6 (L/mole) |  | < 0.001 × 10^6 (L/mole) | 0.78 × 10^6 (L/mole)
6 | CCS(=O)(=O)N[C@H](Cc1ccccc1)C(=O)N1CCC[C@H]1C(=O)NCCc1cccc(C(=N)N)c1 [Example 27, EtSO2 -D-Phe-Pro-m-NHCH2 CH2 --C6 H4 C(=NH)NH2.HCl] | 27,000 ng/mL | 0.02 × 10^6 (L/mole) | 0.02 × 10^6 (L/mole) | 27,800 ng/mL | 1,940 ng/mL | 0.02 × 10^6 (L/mole) |  | < 0.001 × 10^6 (L/mole) | 0.29 × 10^6 (L/mole)
7 | N=C(N)c1ccc(CCNC(=O)[C@@H]2CCCN2C(=O)[C@@H]2NCC[C@@H]3CCCC[C@@H]32)cc1 [Example 28, 1-Piq-Pro-p-NHCH2 CH2 --C6 H4 C(=NH)NH2.2HCl] | 8,300 ng/mL | 0.01 × 10^6 (L/mole) | 0.11 × 10^6 (L/mole) | 8,100 ng/mL | 520 ng/mL | < 0.001 × 10^6 (L/mole) |  | < 0.001 × 10^6 (L/mole) | 0.95 × 10^6 (L/mole)
8 | N=C(N)c1cccc(CCNC(=O)[C@@H]2CCCN2C(=O)[C@@H]2NCC[C@@H]3CCCC[C@@H]32)c1 [Example 29, 1-Piq-Pro-m-NHCH2 CH2 --C6 H4 C(=NH)NH2.2HCl] | 15,800 ng/mL | 0.02 × 10^6 (L/mole) | 0.02 × 10^6 (L/mole) | 9,800 ng/mL | 750 ng/mL | < 0.001 × 10^6 (L/mole) |  | < 0.001 × 10^6 (L/mole) | 0.76 × 10^6 (L/mole)
9 | CCS(=O)(=O)N[C@H](Cc1ccccc1)C(=O)N1CCC[C@H]1C(=O)NCCCc1ccc(C(=N)N)cc1 [Example 30, EtSO2 -D-Phe-Pro-p-NHCH2 CH2 CH2 --C6 H4 C(=NH)NH2.HCl] | 14,400 ng/mL | 0.02 × 10^6 (L/mole) | 0.03 × 10^6 (L/mole) | 14,000 ng/mL | 1,000 ng/mL | < 0.001 × 10^6 (L/mole) |  | < 0.001 × 10^6 (L/mole) | 0.55 × 10^6 (L/mole)
10 | CCS(=O)(=O)N[C@H](Cc1ccccc1)C(=O)N1CCC[C@H]1C(=O)NCCCc1cccc(C(=N)N)c1 [Example 31, EtSO2 -D-Phe-Pro-m-NHCH2 CH2 CH2 --C6 H4 C(=NH)NH2.HCl] | 30,000 ng/mL | 0.14 × 10^6 (L/mole) | 0.05 × 10^6 (L/mole) | 34,500 ng/mL | 10,800 ng/mL | < 0.001 × 10^6 (L/mole) |  | < 0.001 × 10^6 (L/mole) | 0.07 × 10^6 (L/mole)
11 | N=C(N)c1cccc(CCCNC(=O)[C@@H]2CCCN2C(=O)[C@@H]2NCC[C@@H]3CCCC[C@@H]32)c1 [Example 33, 1-Piq-Pro-m-NHCH2 CH2 CH2 --C6 H4 C(=NH)NH2.HCl] | 70,900 ng/mL | 0.04 × 10^6 (L/mole) | 0.02 × 10^6 (L/mole) | 59,300 ng/mL | 18,900 ng/mL | < 0.001 × 10^6 (L/mole) |  | < 0.001 × 10^6 (L/mole) | 0.04 × 10^6 (L/mole)
